Measurements from PMC7163368 (British Journal of Clinical Pharmacology, 2020).
Where “and” joins values, the source holds several entries; their conditions need not be identical. Identical values can stand only once. Entries after “also recorded” stand apart in the source; their conditions may differ.

What was measured:
[1] = Plasma pharmacokinetics of parenterally administered dutogliptin; format: in vivo, human; settings: for AUC / AUC(0-inf) / Tmax / k el / half-life / bioavailability: human, plasma
[2] = Safety and tolerability: adverse events, laboratory, ECG, physical examination; format: in vivo, human

For `O=C(CN[C@@H]1CCNC1)N1CCC[C@H]1B(O)O` [dutogliptin], the Peak plasma concentration ([1]; 30 mg i.v. (n = 5), day 0, mean (SD)) was 2352 (211) ng/mL, the Peak plasma concentration ([1]; 30 mg s.c. (n = 5), day 0, mean (SD)) was 1232 (97) ng/mL and the Peak plasma concentration ([1]; 60 mg s.c. (n = 10), day 0, mean (SD)) was 2757 (517) ng/mL. The Peak plasma concentration ([1]; 90 mg s.c. (n = 10), day 0, mean (SD)) was 3641 (672) ng/mL, the Peak plasma concentration ([1]; 120 mg s.c. (n = 10), day 0, mean (SD)) was 5093 ng/mL and 5093 (873) ng/mL and the “Increase in maximal plasma levels” value ([1]; 120 mg s.c. compared to 500 mg orally administered dutogliptin) was greater than 6 fold. It also gave a Maximum plasma concentration ([1]; 120 mg s.c. multiple dose, day 6 (n = 5), SD: 544) of 6024 ng/mL, an AUC ([1]; iv, 30 mg) of 4080 ng·h/mL and an AUC(0-inf) ([1]; iv, 30 mg) of 4090 ng·h/mL. The Tmax ([1]; iv, 30 mg) was 0.08 h, the k el ([1]; iv, 30 mg) was 5.56e-05 s⁻¹ and the half-life ([1]; iv, 30 mg, T1/2, 30 mg i.v. (n = 5), day 0, mean (SD)) was 3.68 h. It also gave a bioavailability ([1]; sc) of roughly 100%, an AUC ([1]; sc, 30 mg) of 4050 ng·h/mL and an AUC(0-inf) ([1]; sc, 30 mg) of 4060 ng·h/mL. The Tmax ([1]; sc, 30 mg) was 0.7 h, the bioavailability ([1]; sc, 30 mg) was 99% and the k el ([1]; sc, 30 mg) was 5.83e-05 s⁻¹. It also gave a half-life ([1]; sc, 30 mg, T1/2, 30 mg s.c. (n = 5), day 0, mean (SD)) of 3.37 h, an AUC ([1]; sc, 60 mg) of 9060 ng·h/mL and an AUC(0-inf) ([1]; sc, 60 mg) of 9110 ng·h/mL. The Tmax ([1]; sc, 60 mg) was 0.85 h, the bioavailability ([1]; sc, 60 mg) was 109% and the k el ([1]; sc, 60 mg) was 5.56e-05 s⁻¹. The half-life ([1]; sc, 60 mg, T1/2, 60 mg s.c. (n = 10), day 0, mean (SD)) was 3.58 h, the AUC ([1]; sc, 90 mg) was 12200 ng·h/mL and the AUC(0-inf) ([1]; sc, 90 mg) was 12200 ng·h/mL. For the same compound, the Tmax ([1]; sc, 90 mg) was 0.85 h, the bioavailability ([1]; sc, 90 mg) was 96% and the k el ([1]; sc, 90 mg) was 5.56e-05 s⁻¹. The half-life ([1]; sc, 90 mg, T1/2, 90 mg s.c. (n = 10), day 0, mean (SD)) was 3.64 h, the AUC ([1]; sc, 120 mg) was 17200 ng·h/mL and the AUC(0-inf) ([1]; sc, 120 mg) was 17300 ng·h/mL. The Tmax ([1]; sc, 120 mg) was 0.9 h, the bioavailability ([1]; sc, 120 mg) was 95% and the k el ([1]; sc, 120 mg) was 5.83e-05 s⁻¹. The half-life ([1]; sc, 120 mg, T1/2, 120 mg s.c. (n = 10), day 0, mean (SD)) was 3.32 h, the half-life ([1]; sc, Half‐life, subcutaneous injection, pooled, SD: 0.46) was 3.49 h and the “Accumulation of the study drug” value ([1]; multiple injections at daily intervals) was “did not lead to the accumulation of the study drug”. The “AEs with intravenous bolus injection” value ([2]; 30 mg i.v.) was “not associated with any AEs”, the “Dose dependence of related systemic AEs” value ([2]; P > .999) was “No dose‐dependent increase” and the “Dose dependence of subjects experiencing at least 1 local AE” value ([2]; P > .999) was “no dose‐dependent increase”. The “Erythema, related: subjects with at least 1 AE” value (“Erythema, related: subjects” below) ([2]; Total (n = 40)) was 34 (85%), the “Fatigue, related: subjects with at least 1 AE” value (“Fatigue, related: subjects” for short) ([2]; Total (n = 40)) was 2 (5%) and the “Headache, related: subjects with at least 1 AE” value (“Headache, related: subjects” for short) ([2]; Total (n = 40)) was 2 (5%). For the same compound, the “Hematoma, related: subjects with at least 1 AE” value (from here on “Hematoma, related: subjects”) ([2]; Total (n = 40)) was 4 (10%), the “Local AEs, related: subjects with at least 1 AE” value ([2]; Total (n = 40)) was 34 (85%) and the “Other local AEs, related: subjects with at least 1 AE” value ([2]; Total (n = 40)) was 1 (3%). For the same compound, the “Other systemic AEs, related: subjects with at least 1 AE” value ([2]; Total (n = 40)) was 2 (5%), the “Pain with touching, related: subjects with at least 1 AE” value (from here on “Pain with touching, related: subjects”) ([2]; Total (n = 40)) was 8 (20%) and the “Pain without touching, related: subjects with at least 1 AE” value ([2]; Total (n = 40)) was 3 (8%). For the same compound, the “Swelling, related: subjects with at least 1 AE” value ([2]; Total (n = 40)) was 2 (5%), the “Systemic AEs, related: subjects with at least 1 AE” value ([2]; Total (n = 40)) was 6 (15%) and the “Nonrelated serious AE (head injury, hospitalization)” value ([2]; all cohorts) was 1. For the same compound, the “Nonrelated severe AEs” value ([2]; all cohorts) was “Two nonrelated severe AEs”, the “Related systemic AEs, total” value ([2]; all cohorts) was 6 and the “Related serious (or severe) adverse events” value ([2]; all cohorts, 40 healthy males) was “No related serious adverse events occurred; also recorded: No study drug‐related severe or serious AEs were observed”. For the same compound, the “All AEs, related: subjects with at least 1 AE” value ([2]; i.v. single dose 30 mg (n = 5)) was 0, the “Erythema, related: subjects” value ([2]; i.v. single dose 30 mg (n = 5)) was 0 and the “Fatigue, related: subjects” value ([2]; i.v. single dose 30 mg (n = 5)) was 0. The “Headache, related: subjects” value ([2]; i.v. single dose 30 mg (n = 5)) was 0, the “Hematoma, related: subjects” value ([2]; i.v. single dose 30 mg (n = 5)) was 0 and the “Induration, related: subjects with at least 1 AE” value ([2]; i.v. single dose 30 mg (n = 5)) was 0. The “Local AEs, related: subjects with at least 1 AE” value ([2]; i.v. single dose 30 mg (n = 5)) was 0, the “Other local AEs (burning sensation at the injection site), related: subjects with at least 1 AE” value ([2]; i.v. single dose 30 mg (n = 5)) was 0 and the “Other systemic AEs (dizziness and nausea), related: subjects with at least 1 AE” value ([2]; i.v. single dose 30 mg (n = 5)) was 0. The “Pain with touching, related: subjects” value ([2]; i.v. single dose 30 mg (n = 5)) was 0, the “Pain without touching, related: subjects with at least 1 AE” value ([2]; i.v. single dose 30 mg (n = 5)) was 0 and the “Swelling, related: subjects with at least 1 AE” value ([2]; i.v. single dose 30 mg (n = 5)) was 0. For the same compound, the “Systemic AEs, related: subjects with at least 1 AE” value ([2]; i.v. single dose 30 mg (n = 5)) was 0, the “All AEs, related: subjects with at least 1 AE” value ([2]; s.c. multidose 60 mg (n = 5)) was 5 (100%) and the “Erythema, related: subjects” value ([2]; s.c. multidose 60 mg (n = 5)) was 5 (100%). The “Fatigue, related: subjects” value ([2]; s.c. multidose 60 mg (n = 5)) was 1 (20%), the “Headache, related: subjects” value ([2]; s.c. multidose 60 mg (n = 5)) was 0 and the “Hematoma, related: subjects” value ([2]; s.c. multidose 60 mg (n = 5)) was 1 (20%). The “Induration, related: subjects with at least 1 AE” value ([2]; s.c. multidose 60 mg (n = 5)) was 4 (80%), the “Local AEs, related: subjects with at least 1 AE” value ([2]; s.c. multidose 60 mg (n = 5)) was 5 (100%) and the “Other local AEs, related: subjects with at least 1 AE” value ([2]; s.c. multidose 60 mg (n = 5)) was 0. The “Other systemic AEs, related: subjects with at least 1 AE” value ([2]; s.c. multidose 60 mg (n = 5)) was 0 and the “Pain with touching, related: subjects” value ([2]; s.c. multidose 60 mg (n = 5)) was 3 (60%).
